The values below are quoted from earlier work in patent US11304968B2, “Pharmaceutical compositions comprising a hydroxyethylquercetin glucuronide” (JANSSEN PHARMACEUTICA NV, priority 2018, dated 2022).

For data set [1], the system named is cortisol response. The settings on record: in vitro.
For data set [2] the following is noted: rat.
For data set [3] the following is noted: humans, oral; baicalin 616 mg with baicalein 52.5 mg; wogonoside 117.2 mg with wogonin 32 mg.
Test in data set [4]: not given
The source holds these as a separate data set.

Data set [5] concerns cortisol levels. The settings on record: depressed, stressed rats.
The subject of data set [6] is anxiety and depressive behaviors in the offspring. The following applies: pregnant rats fed a high fat diet.
For data set [7] the following is noted: human, in vivo, po.
For data set [8] the following is noted: rat, in vivo, po.

Take `C[C@@H]1O[C@@H](OC[C@H]2O[C@@H](Oc3c(-c4ccc(O)c(O)c4)oc4cc(OCCO)cc(O)c4c3=O)[C@H](O)[C@@H](O)[C@@H]2O)[C@H](O)[C@H](O)[C@H]1O` [MonoHER, 7-monohydroxyethylrutoside]: in data set [1], the “effect on cortisol response and cortisol resistance” value was “protects the proper cortisol response and decreases cortisol resistance”.

Regarding `O=C(O)[C@H]1O[C@@H](Oc2cc3oc(-c4ccccc4)cc(=O)c3c(O)c2O)[C@H](O)[C@@H](O)[C@@H]1O` [baicalin], the solubility in water result is on record as “poorly soluble in water”. Further, the site of absorption result in data set [2] is on record as “preferentially absorbs in the rat stomach”. Moreover, the “urinary COV of metabolites” value in data set [3] is on record as “about 10%”.

Turning to `O=C(O)[C@H]1O[C@@H](Oc2cc3oc(-c4ccc(O)cc4)cc(=O)c3c(O)c2O)[C@H](O)[C@@H](O)[C@@H]1O` [scutellarin], the solubility in water entry is “poorly soluble in water”. Further, the pKa entry in data set [4] was “about 2.7”.

Regarding `C[C@@H]1O[C@@H](OC[C@H]2O[C@@H](Oc3c(-c4ccc(OCCO)c(OCCO)c4)oc4cc(OCCO)cc(O)c4c3=O)[C@H](O)[C@@H](O)[C@@H]2O)[C@H](O)[C@H](O)[C@H]1O` [troxerutin, 7,3′,4′-trihydroxyethylrutoside], the “effect on cortisol levels” value in [5] is on record as “decreased cortisol levels”. In addition, the “anxiety and depressive behaviors in the offspring” value in [6] is “reduced anxiety and depressive behaviors in the offspring”.

Consider “mono-3′-O-hydroxyethyl quercetin-glucuronide [Mono-3′-O-HEQG]”, for which the “volunteers in whom the metabolite was detectable” value in data set [7] was 13 of the 16. Also, in data set [8], the detectability as metabolite result is given as “not detectable”.
